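Compound exposure: 48 hours, 5 concentrations, 96-well plates. GI50 = concentration required for 50% inhibition of growth.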 Activity calls are given as the source filed them. No stated cut-off is given here; in the data, active = GI50 up to about 1.1 µM and inactive = higher.
Columns and labels:
Assay in all cases: DTP human tumour cell line panel, 48 h
CAKI-1 = tested on: CAKI-1
TK-10 = tested on: TK-10
Hs-578T = tested on: Hs-578T
SN12C = tested on: SN12C
SK-OV-3 = tested on: SK-OV-3
HT-29 = tested on: HT-29
786-0 = tested on: 786-0
DU-145 = tested on: DU-145
SF-295 = tested on: SF-295
UACC-62 = tested on: UACC-62
MCF7 = tested on: MCF7
T47D = tested on: T47D
EKVX = tested on: EKVX
U-251 = tested on: U-251
NCI-H460 = tested on: NCI-H460
MOLT-4 = tested on: MOLT-4
NCI-H226 = tested on: NCI-H226
HL-60 = tested on: HL-60
LOX IMVI = tested on: LOX IMVI
MDA-N = tested on: MDA-N

Row | SMILES | GI50 (CAKI-1) | GI50 (TK-10) | GI50 (Hs-578T) | GI50 (SN12C) | GI50 (SK-OV-3) | GI50 (HT-29) | GI50 (786-0) | GI50 (DU-145) | GI50 (SF-295) | GI50 (UACC-62) | GI50 (MCF7) | GI50 (T47D) | GI50 (EKVX) | GI50 (U-251) | GI50 (NCI-H460) | GI50 (MOLT-4) | GI50 (NCI-H226) | GI50 (HL-60) | GI50 (LOX IMVI) | GI50 (MDA-N)
1 | O=C(CSCC(=O)N/N=C/c1cccc(O)c1)N/N=C/c1cccc(O)c1 | > 100 µM (inactive) | > 100 µM (inactive) | > 100 µM (inactive) | > 100 µM (inactive) | > 100 µM (inactive) | > 100 µM (inactive) | > 100 µM (inactive) | > 100 µM (inactive) | > 100 µM (inactive) | > 100 µM (inactive) | > 100 µM (inactive) | > 100 µM (inactive) | > 100 µM (inactive) | > 100 µM (inactive) | > 100 µM (inactive) | > 100 µM (inactive) | 82.4 µM (inactive) | > 100 µM (inactive) |  | 
2 | Fc1c(F)c(C(F)(F)F)c(F)c(F)c1N/N=C/c1cn(Cc2ccccc2)c2ccccc12 | 21.3 µM (inactive) | 25.2 µM (inactive) | 41.7 µM (inactive) | 29.2 µM (inactive) | 12.2 µM (inactive) | 18.2 µM (inactive) | 23.2 µM (inactive) | 29.2 µM (inactive) | 13.6 µM (inactive) | 22.4 µM (inactive) | 23.1 µM (inactive) | 23.6 µM (inactive) | 18.4 µM (inactive) | 34 µM (inactive) | 12.1 µM (inactive) | 23.3 µM (inactive) |  | 21.8 µM (inactive) | 22.8 µM (inactive) | 
3 | O=c1[nH]c(Nc2nc3ccccc3[nH]2)nc(O)c1-c1ccccc1 | > 100 µM (inactive) | > 100 µM (inactive) | 72.3 µM (inactive) | > 100 µM (inactive) | > 100 µM (inactive) | > 100 µM (inactive) | > 100 µM (inactive) | > 100 µM (inactive) | > 100 µM (inactive) | > 100 µM (inactive) | > 100 µM (inactive) |  |  | 82.2 µM (inactive) | > 100 µM (inactive) |  | > 100 µM (inactive) |  | > 100 µM (inactive) | > 100 µM (inactive)
4 | CCCCCCNc1n[nH]c(=O)c2c1nnn2Cc1ccccc1 | > 100 µM (inactive) | > 100 µM (inactive) |  | > 100 µM (inactive) |  | > 100 µM (inactive) | > 100 µM (inactive) | > 100 µM (inactive) | > 100 µM (inactive) |  | > 100 µM (inactive) |  | > 100 µM (inactive) | > 100 µM (inactive) | > 100 µM (inactive) | > 100 µM (inactive) |  | > 100 µM (inactive) | > 100 µM (inactive) | > 100 µM (inactive)
5 | CC[C@]12C=CCN3CCC4(c5cc([C@@]6(C(=O)OC)CC7CN(CCc8c6[nH]c6ccccc86)C[C@@H]6CCC[C@H]76)c(OC)cc5N(C)C4[C@](O)(C(=O)OC)C1OC(C)=O)C32 (stereo not given in full) | 0.962 µM (active) |  |  | 0.423 µM (active) | 0.135 µM (active) | 0.103 µM (active) | 0.316 µM (active) | 0.0165 µM (active) | 0.0986 µM (active) | 0.0728 µM (active) | 0.0127 µM (active) |  | 0.968 µM (active) | 0.106 µM (active) | 0.142 µM (active) | 0.155 µM (active) | 0.201 µM (active) | 0.0585 µM (active) | 0.141 µM (active) | 0.00363 µM (active)
6 | COc1ccc(C2=NN=C3C(c4ccccc4)=Nc4ccccc4N3C2)cc1 |  | 23.5 µM (inactive) |  | 27.8 µM (inactive) | 80.2 µM (inactive) | 20.1 µM (inactive) | 10.6 µM (inactive) | 8.18 µM (inactive) |  | 29.2 µM (inactive) | 21.7 µM (inactive) |  | > 100 µM (inactive) | 14.5 µM (inactive) | 22.1 µM (inactive) | 7.05 µM (inactive) | 41.6 µM (inactive) | 7.55 µM (inactive) | 16.9 µM (inactive) | 49.1 µM (inactive)

Reference: ChEMBL document CHEMBL1201862, “PubChem BioAssay data set” (2004)
